Reference: PMC10062379 (Archives of biochemistry and biophysics, 2022)

biological target: tubulin (αβ-heterodimer); assay: [3H] radioligand binding; parameters: species or system Bos taurus; conditions: not given

Molecule	Kd [nM]
spongistatin 1	1100 ± 300

biological target: tubulin (αβ-heterodimer); assay: competition with [3H]spongistatin […], centrifugal gel filtration; format: binding, Bos taurus; conditions: not given

Molecule	Ki [nM]
C=C(Cl)/C=C/C(O)CC(=C)CC1OC2C(C)C(OC(=O)CC3CC(O)CC4(CC(C)(O)CC(/C=C5/COC(C(C)C(=O)CC6CC(OC)CC7(CC(O)CC(/C=C\CCCC8OC(O)(CC(O)C8C)C2O)O7)O6)C5C)O4)O3)C1O (stereo not shown) [spongistatin 5]	2200

test system: HeLa; assay: cells; parameters: species or system OVCAR-8, NCI/ADR-RES; conditions: Homo sapiens, 96 h, read-out: HeLa / IC50 (nM) ± S.D.)

Molecule	IC50 [nM]
CC[C@H](C)[C@@H]([C@@H](CC(=O)N1CCC[C@H]1[C@H](OC)[C@@H](C)C(=O)N[C@@H](Cc1ccccc1)c1nccs1)OC)N(C)C(=O)[C@@H](NC(=O)[C@H](C(C)C)N(C)C)C(C)C [dolastatin 10]	0.04 ± 0.01
CC[C@]1(O)C[C@@H]2CN(CCc3c([nH]c4ccccc34)[C@@](C(=O)OC)(c3cc4c(cc3OC)N(C)[C@H]3[C@@](O)(C(=O)OC)[C@H](OC(C)=O)[C@]5(CC)C=CCN6CC[C@]43[C@@H]65)C2)C1 [vinblastine]	6 ± 3
CO[C@@H](/C(C)=C/C=C/C(C)=C/c1coc(C)n1)[C@@H](C)[C@@H]1C[C@H](O)[C@@]2(C)O[C@@H]2/C=C/[C@@H](C)[C@H]2C[C@H](CC(=O)O2)C[C@@H]2O[C@H]2C(=O)O1 [Rhizoxin]	3 ± 1
CC(C)[C@H](O)C(=O)N[C@H]1Cc2ccc3c(c2)[C@]24C5=C(N=C(O5)[C@H](C(C)C)NC1=O)c1nc(Cl)c(o1)-c1c(Cl)[nH]c5cccc(c15)-c1cccc2c1N[C@@H]4O3 [Diazonamide A]	15 ± 5
COc1ccc(C[C@H]2NC(=O)/C=C/C[C@@H]([C@H](C)[C@H]3O[C@@H]3c3ccccc3)OC(=O)[C@H](CC(C)C)OC(=O)[C@H](C)CNC2=O)cc1Cl [cryptophycin 1]	0.01 ± 0.004
CN[C@H](C(=O)N[C@H](C(=O)N(C)[C@H](/C=C(\C)C(=O)O)C(C)C)C(C)(C)C)C(C)(C)c1cn(C)c2ccccc12 [hemiasterlin]	0.25 ± 0.05
C=C1C[C@@H]2CC[C@@]34C[C@H]5O[C@H]6[C@@H](O3)[C@H]3O[C@H](CC[C@@H]3O[C@H]6[C@H]5O4)CC(=O)C[C@@H]3[C@@H](OC)[C@@H](C[C@H](O)CN)O[C@H]3C[C@H]3O[C@@H](CC[C@@H]1O2)C[C@@H](C)C3=C [eribulin]	20
COc1cc2cc(c1Cl)N(C)C(=O)C[C@H](OC(=O)[C@H](C)N(C)C(C)=O)[C@]1(C)O[C@H]1[C@H](C)[C@@H]1C[C@@](O)(NC(=O)O1)[C@H](OC)/C=C/C=C(\C)C2 [Maytansine]	2
